Results on one molecule are retold here after patent US20220235421A1, “DETECTING AND TREATING CISPLATIN SENSITIVE CANCER” (The Cleveland Clinic Foundation, priority 2021, published 2022).

This experiment relates to epithelial-based cancer cell lines (GDSC). The experiment is described as follows: Cell Line Persistence Curve of cisplatin IC50 in the GDSC dataset, by CisSig score cohort. The conditions noted are these: cisplatin concentration approximately 5. An excerpt:
FIG. 11C compares the distribution of IC50 between cohorts of GDSC cell lines in this top and bottom quintile of CisSig score. We are terming this plot a “Cell Line Persistence Curve”, which resembles a Kaplan-Meier survival curve, but uses IC50 in place of survival time for cell lines. […] For example, when cisplatin concentration reaches approximately 5 approximately 50% of the resistant cohort remains with a greater IC50, while only 20% of the sensitive cohort remains with a greater IC50. In other words, cell lines predicted to be resistant tend to have greater IC50 values and cell lines predicted to be sensitive tend to have lower IC50 values.
The drug response data in the GDSC database was last updated 27 Mar. 2018; this version is referred to as “GDSC2.” Cisplatin drug concentration is reported in μM. Raw viability data were processed using the R package, gdscIC50, where they were normalized with negative controls (media alone) and positive controls (media only wells with no cells). Dose-response curves were fit using a multi-level fixed effect model with a classic sigmoidal curve shape assumed. This model was fitted using all cell line/drug combinations that were screened instead of fitting separate models to individual drug-response series. […]

On to `N.N.[Cl][Pt][Cl]` [cisplatin], for which the “proportion of the cohort remaining with a cisplatin IC50 greater than the cisplatin concentration” value (resistant cohort (bottom quintile of CisSig score)) is “approximately 50%” and the “proportion of the cohort remaining with a cisplatin IC50 greater than the cisplatin concentration” value (sensitive cohort (top quintile of CisSig score)) stood at 20%.
